From US20240216289A1, “LIPIDOID NANOPARTICLES FOR THE TREATMENT OF DISEASES AND DISORDERS” (Trustees of Tufts College, priority 2021, published 2024)
Entries after “also recorded” stand apart in the source; their conditions may differ.

What was measured:
inguinal lymph nodes = experiment: Luc mRNA expression in inguinal lymph nodes after subcutaneous tail-base injection of LNP/mLuc (IVIS); assay type: in vivo, Balb/c mice; conditions: subcutaneous at tail base, 6 h, bioluminescence
liver [1] = experiment: Luc mRNA expression in liver after subcutaneous tail-base injection of LNP/mLuc (IVIS); assay type: in vivo, Balb/c mice; conditions: subcutaneous at tail base, 6 h, bioluminescence
[2] = test system: macrophages and dendritic cells (DCs) in inguinal lymph nodes; experiment: Delivery of Cre mRNA to LNs in Ai14 reporter mice (tdTomato positive cells, flow cytometry); assay type: in vivo; conditions: LNP/Cre mRNA s.c., 48 h; result in words
OVA = experiment: ELISA for antibody titer after OVA mRNA vaccination; assay type: in vivo; conditions: 14 days after second dose
HEK293T cells = experiment: 5′UTR and 3′UTR optimization in HEK293T cells (eGFP, flow cytometry); assay type: cell-based; conditions: LPF2k
Protocol: 5′UTR optimization in HEK293T cells. Prior to transfection, HEK293T cells were seeded on a 48-well plate at 40,000 cells/well, with 500 μL DMEM culture in each well. 6 groups were set with different treatments: Lipofectamine 2000 (LPF2k) only, pcDNA3.0-eGFP, pcDNA3.0-NCA7d-eGFP, pcDNA-70nt-eGFP, pcDNA3.0-Ces1d-eGFP and pcDNA3.0-S27a45′-eGFP. LPF2k was complexed each plasmid in equal amount (0.5 μg/0.5 μg) before being added to each well. At each time point (36 hrs, 60 hrs, 84 hrs and 108 hrs), cells were washed with PBS and then treated with 500 μL 0.25% Typsine-EDTA 10 (Gibco) for 3 min. Resuspended cells were applied to the Attune NxT Flow Cytometer (Thermo Fisher) directly (FIG. 10).
3′UTR optimization in HEK293T cell. Similar to 5′UTR optimization, thirteen 3′UTRs modified pcDNA3.0-Ces1d-eGFP and pcDNA3.0-70nt-eGFP were encapsulated in LPF2k at a 1:1 weight ratio and then transfected into HEK293T cells. At each time point (48 hrs, 72 hrs, 96 hrs and 120 hrs), cells were washed with PBS and then treated with 500 μL 0.25% Typsine-EDTA (Gibco) for 3 min. Resuspended cell were applied to the Attune NxT Flow Cytometer (Thermo Fisher) directly (FIG. 11).

liver [3] = experiment: Mouse liver-directed 3′UTR and cap screening in mRNA format (L88 LNP, IVIS); assay type: in vivo, BALB/c mice; conditions: Lipid 88 delivery, 0.2 mg/kg IV
Protocol: Mouse liver-directed 3′UTR screening in mRNA format. 6-week-old female BALB/c mice were used for in vivo modified Fluc-eGFP mRNA screening with L88 LNP delivery. Each UTRs modified Fluc-eGFP mRNA were encapsulated in an optimal Lipid 88 formulation (L88:Chol:DOPC:DMG-PEG=16:4:2:1, w w) at the weight ratio of 1:10 in PBS solution (RNase-free). The L88/Fluc-eGFP mRNA complex was intravenously injected into the mice at a mRNA dose of 0.2 mg/kg. At each preset time point, mice were injected with 100 μL of D-Luciferin potassium salt (GoldBio) solution (15 mg/mL in PBS), anesthetized under isoflurane anesthesia, and evaluated using IVIS imaging system (Caliper Life Sciences, US).

[4] = test system: IFN γ and IL-4 positive T cells; experiment: IFN γ and IL-4 ELISpot after S protein mRNA vaccination; assay type: in vivo, mice; conditions: spleen day 28
Protocol: The blood and spleen were collected at day 28 for further analysis.
The T cell response after the vaccination was analyzed by IFN γ and IL-4 ELISpot (FIGS. 5A-C).
The T cell response after vaccination was tested by ELISpot assay.

Molecule: CCCCCCCCC(CCCCCC)C(=O)OCCCCCCN(CCCCO)CCCCCCOC(=O)C(CCCCCC)CCCCCCCC (stereo not shown) [ALC-0315]
- Luc mRNA expression in inguinal (draining) lymph nodes (inguinal lymph nodes): obvious signal in draining LNs
- Luc mRNA expression in liver (liver [1]): significantly increased expression of Luc in liver; also recorded: significantly higher expression in liver
- transfection of cells in inguinal lymph nodes [2]: less efficacy compared with 113-F2 LNP; also recorded: successfully delivered Cre mRNA to antigen-presenting cells (APC)
- antibody response (total IgG, IgG1, IgG2c) (OVA): peak antibody level

Molecule: Apolipoprotein A-II
- eGFP expression, 3′UTR in pcDNA3.0-70nt-eGFP (HEK293T cells; 48-120 hrs): top-performing 3′UTR candidates
- ARCA capped 70nt-Fluc-eGFP mRNA Fluc expression in the liver (liver [3]): highest Fluc expression in the liver relative to other eight 3′UTR modifications

Molecule: Pam3CSK4
- Luc mRNA expression in inguinal (draining) lymph nodes (inguinal lymph nodes): decreased the mRNA expression in draining lymph nodes
- transfection of cells in inguinal lymph nodes [2]: decreased the transfection efficacy
- IL-4 positive T cells (ELISpot) [4]: increased the Th1 T cell response and percentage of IL-4 secreting T cells; also recorded: significantly induced IL-4 secreting T cells compared with all other groups

B1: Ces1d: 5′UTR fragment, sequence in Table 1 (nucleic acid)
DNA: CCACTAGTTCTAGAGGTACCTTGGACCCTCGTACAGAAGCTAATACGACTCACTATAAGGAGGCGGGTCCCCTGGTCCACAACAGAAGCATTGCTAAAGCAGCAGATAGCTCAGAGACCCACAGAGCCCTTGTCCTTCCACAGAATTCGCCACCATGGAAGA
- eGFP expression, 5′UTR in pcDNA3.0-eGFP (HEK293T cells; 36-108 hrs): top-performing 5′UTR candidates
